Test results taken from BindingDB's records for patent US10544113 (National Health Research Institute; Regents of the …, 2020).

The compounds below were run against Mu-type opioid receptor (Homo sapiens, UniProt P35372) (assay: FLIPR Calcium Assay).
Sequence of Mu-type opioid receptor (P35372 whole entry): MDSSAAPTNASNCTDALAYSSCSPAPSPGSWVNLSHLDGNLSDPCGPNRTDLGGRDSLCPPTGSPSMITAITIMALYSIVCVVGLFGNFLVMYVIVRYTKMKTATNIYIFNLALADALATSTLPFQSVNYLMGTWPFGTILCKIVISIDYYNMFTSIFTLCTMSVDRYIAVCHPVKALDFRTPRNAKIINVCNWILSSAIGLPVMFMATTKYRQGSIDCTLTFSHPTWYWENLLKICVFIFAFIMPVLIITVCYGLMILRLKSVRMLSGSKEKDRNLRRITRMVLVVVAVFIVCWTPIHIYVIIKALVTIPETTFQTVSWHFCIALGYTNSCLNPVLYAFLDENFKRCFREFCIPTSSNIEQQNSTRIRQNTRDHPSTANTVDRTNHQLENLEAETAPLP
Method: One day before the assay, CORNING black with clear flat bottom 96-well assay plates were coated with a 0.1 mg/mL Poly-L-Lysine solution. CHO-K1/MOR/Gα15 cells were suspended in the F12 medium and plated at a density of 8×10^4 cells/well in 200 μL medium. Cells were incubated in a humidified atmosphere of 10% CO2 at 37° C. overnight so as to reach an 80-90% confluent cell monolayer before assay. At the day of assay, 150 μL medium/well was removed from plate. To each well, 50 μL FLIPR calcium assay reagent dissolved in 1× assay buffer (HBSS: KCl 5 mM, KH2PO4 0.3 mM, NaCl 138 mM, NaHCO3 4 mM, Na2HPO4 0.3 mM, d-glucose 5.6 mM, with additional 20 mM HEPES and 13 mM CaCl2, pH 7.4), with 2.5 mM probenecid was added and the plate was incubated at 37° C. for 1 h. Compounds and other reagents were dissolved in the assay buffer. Using a FlexStationIII (Molecular Devices Corp.), the [Ca2+]i fluorescence increases after robotic injections of compounds or other reagents were monitored every 1.52 s interval with excitation wavelength at 485 nm and with emission wavelength at 525 nm. The [Ca2+]i fluorescence was measured up to 90 s after agonist injection.
With `COc1ccc(F)cc1N1C(=O)CSC1c1ccc(F)cc1` (stereo not drawn) [US10544113, No. 6] the EC50 was 3.9 µM. Work on `COc1ccc(F)cc1N1C(=O)CSC1c1cccc(F)c1` (stereo not drawn) [US10544113, No. 5] yielded an EC50 of 5.2 µM. For `COCCCNC(=O)c1ccc(N2C(=O)CSC2c2ccc(F)cc2)c(C)c1` (stereo not drawn) [US10544113, No. 343], the EC50 was 3.7 µM. `COc1ccc(F)cc1N1C(=O)CSC1c1ccc(F)c(F)c1` (stereo not drawn) [US10544113, No. 4] was tested, and the EC50 was 3.3 µM. Compound `COc1cc(N2C(=O)CSC2c2ccc(F)cc2)cc(OC)c1OC` (stereo not drawn) [US10544113, No. 16] has an EC50 of 8.3 µM. For `Cc1cccc(F)c1N1C(=O)CSC1c1ccc(F)cc1` (stereo not drawn) [US10544113, No. 108], the EC50 was 3.3 µM. `Cc1cc(C(=O)NCCc2ccccc2Cl)ccc1N1C(=O)CSC1c1ccc(F)cc1` (stereo not drawn) [US10544113, No. 384] gave an EC50 of 6.6 µM. Compound `Cc1cc(C(=O)NCCN2CCOCC2)ccc1N1C(=O)CSC1c1ccc(F)cc1` (stereo not drawn) [US10544113, No. 344] has an EC50 of 7 µM. In the case of `COc1ccccc1N1C(=O)CSC1c1cccc(F)c1` (stereo not drawn) [US10544113, No. 1], the EC50 is reported as 12.4 µM. Compound `Cc1cc(C(=O)OCCN2CCCC2)ccc1N1C(=O)CSC1c1ccc(F)cc1` (stereo not drawn) [US10544113, No. 294] has an EC50 of 2.9 µM. In the case of `Cc1cc(C(=O)OCCCc2ccccc2)ccc1N1C(=O)CSC1c1ccc(F)cc1` (stereo not drawn) [US10544113, No. 253], the EC50 is reported as 11.2 µM. `COc1ccccc1N1C(=O)CSC1c1ccc(F)cc1` (stereo not drawn) [US10544113, No. 2] showed an EC50 of 19 µM. `COCCOCCOC(=O)c1ccc(N2C(=O)CSC2c2ccc(F)cc2)c(C)c1` (stereo not drawn) [US10544113, No. 280] was tested, and the EC50 was 7.1 µM.
